Results from patent US20240174625A1, “COMPOSITIONS AND METHODS FOR TREATING TAUOPATHIES” (The Regents of the University of California, priority 2021, published 2024).

What was measured:
phosphorylated tau = assay: Tau histopathology in hTau^P301S mouse model of tauopathy; assay type: in vivo; conditions: hTau^P301S homozygous mice; 20 mg/kg/day s.c. for 28 days; compared to vehicle
Text: Adult hTau^P301S homozygous mice (Tg2541Godt mice, a transgenic mouse model of tauopathy carrying a human Tau^P301S mutation^19 and wild-type (WT) littermates on a C57BL/6J background of both genders were used in the in vivo efficacy on Tau histopathology experiments. hTauP301S homozygous mice were obtained as gifts from Dr. Michel Goedert at MRC Laboratory of Molecular Biology, Cambridge, UK and Dr. Stanley Prusiner at UCSF, USA, and were re-derived onto a pure C57BL/6J genetic background by Dr. Prusiner's lab. Mice were periodically outcrossed with WT C57BL/6J mice (Strain #000664) from Jackson Laboratory (Bar Harbor, ME) to maintain genetic diversity. Animals were group-housed in a temperature-controlled facility (73±2° F., 45% humidity, regular 12-hour light/dark cycle, lights on at 7 AM), with food and water ad libitum. All experimental procedures were approved by the ARC administrative office at the University of California Los Angeles (UCLA) and the UCLA institutional animal care and use committee (IACUC) and followed the USDA Animal Welfare Act Regulations, the Public Health Service (PHS) Policy on Humane Care and Use of Laboratory Animals, and the Guide for the Care and Use of Laboratory Animals. Adult male WT mice on a C57BL/6J background (Strain #000664), purchased from Jackson Laboratory (Bar Harbor, ME), were used in the in vivo pharmacokinetics and blood-brain barrier penetration studies. Animals were randomly assigned to experimental groups and tested by experimenters blinded to experimental conditions.
Osmotic minipump (model #2004) were purchased from Alzet (Cupertino, CA, USA) and implanted into mice subcutaneously (s.c.) following the manufacturer's instruction, as previously described^20. Briefly, animals are placed on a thermoregulation device and anesthetized using isoflurane [4-5% (induction), 1.5-2.5% (maintenance)]. A sterile drape is used to create a sterile field for surgery after animal preparation. […] Animals are monitored observed continuously during the immediate anesthetic-recovery period until the animal is ambulatory. Animals are monitored daily after anesthetic recovery for 7 days. […]
Assessment of tau histopathological in a mouse model of tauopathy Effects of pharmacological manipulations of JMM compounds on tau histopathology were evaluated via osmotic pump chronic infusion at 20 mg/kg/day s.c. over 28 consecutive days in hTau^P301S homozygous mice or WT littermates, starting treatment at the onset of Tau histopathology (i.e., 4.2 months old age). […] Animals are weighted (g) and rectal temperature (° C.) was measured using a thermometer equipped with a mouse rectal probe (Braintree Scientific Inc., Braintree, MA) on treatment day 27. […]

NPEPPS = target: T1, NPEPPS (Homo sapiens, UniProt P55786); assay: Cell-based NPEPPS activity assay (Q-AMC fluorescence); conditions: log10 transformed; EC50 = concentration that elevates 50% NPEPPS activity (150% of DMSO baseline); HEK293T cells
T1 construct: endogenous in cells; host or cells: HEK293T
How it was run: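 HEK293T cells (16,500/well) on poly-L-ornithine in minimal medium with compounds in 20-step 2-fold dilution for 24 h, then H-Gln-AMC added (30 μl of 200 μM). Fluorescence (ex/em 360/460 nm) read at addition and 3 h later; change in fluorescence taken as NPEPPS activity, giving EC50 versus DMSO control.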

HEK293T cells = assay: Cell viability assay (CellTiter Glo); assay type: cell-based, human
How it was run: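 HEK293T cells seeded at 16,500 per well on poly-L-ornithine in minimal medium with amino acids, vitamins and AlbuMax in HBS, with compound added as a 20-step 2-fold dilution. CellTiter Glo luminescence was read after 24 h. Viability is the signal normalized to DMSO control.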

T1 sequence (P55786 whole entry): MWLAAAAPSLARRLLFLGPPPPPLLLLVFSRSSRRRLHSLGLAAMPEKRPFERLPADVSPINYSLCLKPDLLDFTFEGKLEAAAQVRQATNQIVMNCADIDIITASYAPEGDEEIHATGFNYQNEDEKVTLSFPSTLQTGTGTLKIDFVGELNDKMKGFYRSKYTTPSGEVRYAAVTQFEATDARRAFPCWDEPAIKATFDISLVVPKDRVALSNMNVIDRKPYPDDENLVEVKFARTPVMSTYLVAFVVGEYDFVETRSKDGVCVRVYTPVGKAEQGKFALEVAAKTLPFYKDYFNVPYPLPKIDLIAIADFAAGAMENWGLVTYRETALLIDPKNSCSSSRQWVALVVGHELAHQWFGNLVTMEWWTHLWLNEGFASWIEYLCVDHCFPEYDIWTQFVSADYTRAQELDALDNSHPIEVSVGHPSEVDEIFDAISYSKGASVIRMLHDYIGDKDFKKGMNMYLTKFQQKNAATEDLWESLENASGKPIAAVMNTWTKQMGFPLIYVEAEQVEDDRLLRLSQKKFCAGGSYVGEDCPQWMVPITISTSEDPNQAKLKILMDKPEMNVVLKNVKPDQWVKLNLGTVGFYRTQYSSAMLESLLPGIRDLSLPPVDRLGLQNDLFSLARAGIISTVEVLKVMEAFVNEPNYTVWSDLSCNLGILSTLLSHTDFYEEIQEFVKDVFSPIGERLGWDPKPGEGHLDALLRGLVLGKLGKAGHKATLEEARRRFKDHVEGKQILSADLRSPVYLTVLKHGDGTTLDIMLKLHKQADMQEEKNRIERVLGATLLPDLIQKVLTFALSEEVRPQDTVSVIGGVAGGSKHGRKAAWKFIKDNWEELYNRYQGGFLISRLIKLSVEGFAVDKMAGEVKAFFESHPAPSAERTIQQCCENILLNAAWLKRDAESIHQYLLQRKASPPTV

EC50 (NPEPPS): 13.2 µM
Structure (SMILES): FC(F)(F)c1ccc(CNc2nsc3cccc(OCc4ccccc4)c23)cc1 [JMM062]
tau histopathology in the cortex (phosphorylated tau staining) (phosphorylated tau): reduced
IC50 (HEK293T cells; Homo sapiens, HEK-293T, log10 transformed, IC50 = concentration that suppresses 50% cell viability, HEK293T cells): 18.6 µM
Therapeutic index (HEK293T cells; ratio of IC50 (cell viability) over EC50 (NPEPPS activity)): 1.42
